Patent US20240358015A1, “HERBICIDAL COMPOSITIONS” (Agrematch Ltd., priority 2021, published 2024)

Assays:
[1] = tested on: A. theophrasti; assay: Growth-chamber post-emergence assay on various weed species (Example 7); assay type: in vivo, Abutilon theophrasti; settings: 1500 g/ha; 0.8% MIPA, 0.25% Genapol, 2% HASTEN, 0.05% Break-Thru
Description: (§1) Herbicidal activity of Compound 1 was determined by post-emergence application on various weed species. 8-14 day old plants (weeds) were grown at 16 hours/8 hours day/night cycles at 30° C./25° C., respectively. Leaf stage was typically 2-6.
(§2) In each treatment, 3 pots (either 7×7 or 8×12 cm), containing about 3-6 plants each, were sprayed using a VL-SET Paasche Airbrush with a 1-1.5 ml-solution containing 0.5-1.5 mg/ml of the tested compound, which is equivalent to about 500-1500 g/ha.
(§3) Damage assessment: Herbicidal activity was assessed and scored 3-4 days after application by visual inspection of the plants in comparison to plants treated with the formulation alone (with no active ingredient) as control. Activity score is in the range of 0 to 100, where 0 represents no herbicidal activity like control plants and 100 represents the maximal herbicidal activity (i.e., total death of the plant).

[2] = tested on: Setaria viridis; assay: Growth-chamber post-emergence herbicidal assay (Example 2); assay type: in vivo; settings: 1000 g/ha, 3-4 days after application
Description: (§4) Herbicidal activity was determined by post-emergence application on 8-day old plants (weeds) of the Amaranthus palmeri and Setaria viridis species that were grown at 16 hours/8 hours day/night cycles at 30° C./25° C., respectively. Leaf stage was typically 4-6 for A. palmeri and 3-4 for S. viridis.
In each treatment, 2-3 pots, each containing about 5 plants each (for Setaria viridis), and one 9-pack, containing about 9 plants (for Amaranthus palmeri), were sprayed using a VL-SET Paasche Airbrush with 0.3-1.5 ml solution containing 0.125-2 mg/ml of a tested compound, which is equivalent to about 125-2000 g/ha.
as §3
Herbicidal activity scores 3-4 days after application are presented Table 3 below.

[3] = tested on: X. strumarium; assay: Growth-chamber post-emergence assay on various weed species (Example 7); assay type: in vivo, Xanthium strumarium; settings: 1500 g/ha; 0.8% MIPA, 0.25% Genapol, 2% HASTEN, 0.05% Break-Thru
Description: as §1, §2, §3

[4] = tested on: Setaria viridis; assay: Growth-chamber post-emergence assay, low application rates (Example 5); assay type: in vivo
Description: as §4, with “activity of Compound 1” for “activity”
(§5) In each treatment, between 1 to 3 pots (8×12 cm), containing about 6 Amaranthus palmeri or Setaria viridis plants, were sprayed using a VL-SET Paasche Airbrush with a 1 ml-solution containing 0.1-0.375 mg/ml of the tested compound, which is equivalent to about 100-375 g/ha.
as §3

[5] = tested on: Amaranthus palmeri; assay: as above; assay type: in vivo
Description: as §4, with “activity of Compound 1” for “activity”
as §5, §3

[6] = tested on: A. palmeri; assay: Greenhouse post-emergence assay (Example 3); assay type: in vivo, Amaranthus palmeri; settings: 4% TWEEN 20, 0.05 M Tris buffer pH 8, 0.05% Break-Thru
Description: Plant seeds were sowed in 9 cm×9 cm×10 cm flowerpots. Timing of sowing (days before treatment application) for each plant is detailed in Table 7 below. 5 flowerpots of each species were used for each treatment. Seeds were sowed in wet clay soil and then covered with about 1 cm layer of dry clay soil.
Irrigation: Irrigation was carried out using VIBRONET-UD (NETAFIM) sprinklers hanging upside down one meter above the flowerpots. Water flow capacity-50 liters per hour. Irrigation was carried out three times a day for 10 minutes.
Treatments: Table 8 presents generally the protocols of the various treatments used in these assays.
(§6) 57.6 ml of 0.05 M Tris buffer pH=8 were added to 150 mg of Compound 1 and the mixture was stirred using a magnetic stirrer. 2.4 ml of TWEEN®20 were added and the mixture was stirred using a magnetic stirrer to obtain a 4% TWEEN®20-containing solution. 30 μl of Break-Thru were added to obtain a 0.05% Break-Thru-containing solution.
as §6, with “225” for “150”
Plants were sprayed using a DeVreis Generation 4 Research Track Sprayer with a TEE JET nozzle 80015EVS. Spraying volume was 200 L/ha using the following sprayer parameters: • Spray speed-2 KMH • Spray length-1.50 m • Spray pressure-42 PSI
Each plant was sprayed twice, yielding a total spraying volume of 400 L/ha. Nozzle was located 55 cm above pots ground level.
A. palmeri, S. viridis and S. nigrum plants were elevated with 8 cm tray, Z. mays plants were elevated with 3 cm tray in order to achieve a similar spraying height for all plant's foliage.
Plants were scored by visual inspection of symptoms, on a scale of 0-100, where 0 represents no herbicidal activity like control plants and 100 represents the maximal herbicidal activity (i.e., total death of the plant). Each pot was scored separately. DAT=days after treatment

[7] = 125 g/ha, 0.8% MIPA, 0.25% Genapol, 2% DASH EC
[8] = 125 g/ha, 0.8% MIPA, 2% DASH EC
[9] = 150 g/ha, 0.8% MIPA, 0.25% Genapol, 1% AGNIQUE, 0.05% Ca-LAS, 0.02% BSU
[10] = 150 g/ha, 0.8% MIPA, 0.25% Genapol, 2% HASTEN
[11] = 200 g/ha, 0.21% MIPA, 0.25% Genapol, 1% AGNIQUE, 0.05% Ca-LAS, 0.02% BSU
[12] = 200 g/ha, 0.8% MIPA, 0.25% Genapol, 1% AGNIQUE, 0.05% Ca-LAS, 0.02% BSU
[13] = 375 g/ha, 0.8% MIPA, 0.25% Genapol, 1% AGNIQUE, 0.05% Ca-LAS, 0.02% BSU
[14] = 375 g/ha, 0.8% MIPA, 2% TWEEN20, 1% AGNIQUE, 0.05% Ca-LAS, 0.02% BSU, 0.05% Break-Thru, 3-4 days after application, scale 0-100

SMILES: O=C(O)c1cc(O)c2c(c1)C(=O)c1cccc(O)c1C2=O [Compound 1, Rhein]
- Herbicidal activity score [1]: 40
- Herbicidal activity score ([2]; 1 mg/ml in 0.015% Ammonium hydroxide, 0.25% Adsee): 10
- Herbicidal activity score ([2]; 1 mg/ml in 0.015% Ammonium hydroxide, 0.25% Genapol X-080): 70
- Herbicidal activity score ([2]; 1 mg/ml in 0.015% Ammonium hydroxide, 0.7% Sodium Lauryl Ether sulfate): 100
- Herbicidal activity score ([2]; 1 mg/ml in 0.015% Ammonium hydroxide, 1% AGNIQUE, 0.05% Ca-LAS, 0.02% BSU): 70
- Herbicidal activity score ([2]; 1 mg/ml in 0.015% Ammonium hydroxide, 2% Tween 20, scale 0-100): 80
- Herbicidal activity score ([2]; 1 mg/ml in 0.037% MIPA, 0.25% Adsee): 40
- Herbicidal activity score ([2]; 1 mg/ml in 0.037% MIPA, 0.25% Genapol X-080): 100
- Herbicidal activity score ([2]; 1 mg/ml in 0.037% MIPA, 0.7% Sodium Lauryl Ether sulfate): 100
- Herbicidal activity score ([2]; 1 mg/ml in 0.037% MIPA, 1% AGNIQUE, 0.05% Ca-LAS, 0.02% BSU): 70
- Herbicidal activity score ([2]; 1 mg/ml in 0.037% MIPA, 2% Tween 20): 100
- Activity Score ([2]; 2% TWEEN 20, 5.2 mM Ammonium hydroxide, 0.05% Break-Thru, scale 0-100): 90
- Herbicidal activity score [3]: 90
- Herbicidal activity score [4, 7]: 23
- Herbicidal activity score [4, 8]: 43
- Herbicidal activity score [4, 9]: 70
- Herbicidal activity score [4, 10]: 65
- Herbicidal activity score [4, 11]: 65
- Herbicidal activity score [4, 12]: 88
- Herbicidal activity score [4, 13]: 78
- Herbicidal activity score [4, 14]: 75
- Herbicidal activity score ([5]; 100 g/ha, 0.8% MIPA, 0.25% Genapol, 2% DASH EC): 90
- Herbicidal activity score [5, 7]: 93
- Herbicidal activity score [5, 8]: 65
- Herbicidal activity score [5, 9]: 85
- Herbicidal activity score [5, 10]: 85
- Herbicidal activity score [5, 11]: 93
- Herbicidal activity score [5, 12]: 98
- Herbicidal activity score ([5]; 250 g/ha, 0.02% MIPA, 2% TWEEN20, 2% AGNIQUE, 0.1% Ca-LAS, 0.04% BSU, 0.05% Break-Thru): 90
- Herbicidal activity score [5, 13]: 97
- Herbicidal activity score [5, 14]: 100
- Score by visual inspection of symptoms (average ± standard deviation, 5 pots) ([6]; 1000 g/ha (2.5 mg/ml, 400 L/ha), 1 DAT, scale 0-100): 22 ± 13
- Score by visual inspection of symptoms (average ± standard deviation, 5 pots) ([6]; 1000 g/ha (2.5 mg/ml, 400 L/ha), 3 DAT): 54 ± 11.4
- Score by visual inspection of symptoms (average ± standard deviation, 5 pots) ([6]; 1000 g/ha (2.5 mg/ml, 400 L/ha), 6 DAT): 36 ± 8.9
- Score by visual inspection of symptoms (average ± standard deviation, 5 pots) ([6]; 1000 g/ha (2.5 mg/ml, 400 L/ha), 8 DAT): 34 ± 11.4
- Score by visual inspection of symptoms (average ± standard deviation, 5 pots) ([6]; 1000 g/ha (2.5 mg/ml, 400 L/ha), 15 DAT): 20 ± 15.8
- Score by visual inspection of symptoms (average ± standard deviation, 5 pots) ([6]; 1500 g/ha (3.75 mg/ml, 400 L/ha), 1 DAT): 38 ± 29.5
- Score by visual inspection of symptoms (average ± standard deviation, 5 pots) ([6]; 1500 g/ha (3.75 mg/ml, 400 L/ha), 3 DAT): 90 ± 9.4
- Score by visual inspection of symptoms (average ± standard deviation, 5 pots) ([6]; 1500 g/ha (3.75 mg/ml, 400 L/ha), 6 DAT): 87 ± 9.7
- Score by visual inspection of symptoms (average ± standard deviation, 5 pots) ([6]; 1500 g/ha (3.75 mg/ml, 400 L/ha), 8 DAT): 83 ± 14
- Score by visual inspection of symptoms (average ± standard deviation, 5 pots) ([6]; 1500 g/ha (3.75 mg/ml, 400 L/ha), 15 DAT): 66 ± 29.7
